Data on 5 compounds can be found in patent publication US20150320762A1, “TREATMENT OF PROLIFERATIVE DISEASES WITH PYRIMIDODIAZEPINONES” (Cyclacel limited, priority 2012, published 2015).

For orientation: AUC means the area under the concentration-time curve, a measure of exposure. Higher therefore signals more exposure. One may read the Cmax as the highest concentration seen after dosing.

Series [1] concerns BAC and ESCC cell lines versus the benign OE cell line (CPA). The experiment in a line: 96-well drug washout/outgrowth anti-proliferative assay (resazurin, day 6). The format is cell-based. Particulars: all timepoints. The protocol:
Tumour sensitivity towards Plk1 inhibitors was studied in a panel of oesophageal (OE) cell lines. The cell lines used were: a benign Barrett's (CPA), two Barrett's adenocarcinoma (OE19 and OE33; Sigma Aldrich), and two oesophageal squamous cell carcinoma cell lines (OE21, ECACC; and KYSE-410, ECACC).
The anti-proliferative effect of Plk1 inhibitors was studied in a 96-well format drug washout/outgrowth assay. Cells were seeded at 1.5-2.5×10^3 cells per well in 96-well plates and left to incubate overnight at 37° C., 5% CO2, before addition of a range of concentrations of each of the different Plk1 inhibitors. Cells were incubated with the compounds for various periods of time, ranging from 3 to 24 hours; media containing the compounds was then removed from the cells and replaced with drug-free media until the end of the assay. The cell viability was evaluated on day 6 using a standard resazurin-based assay according to manufacturer's instructions (AlamarBlue, AbD Serotec, Oxford, UK). The IC50 values were determined using IDBS software.
(In general: The colour change of resazurin is a common sign of viable cells or microbes.)

A short description of series [2]: Mouse PK data for selected compounds of the invention. The format is in vivo. The following applies: dose 1 mg/kg; for AUC / Cmax: plasma. The protocol: The plasma concentration is measured using standard LC-MS/MS analysis based on the following method. Calibration and control samples are prepared as follows from a 500 μg/mL solution of compound in methanol/DMSA 50/50 v/v. This stock solution is used to prepare diluted working standards of the test items with concentrations from 200 ng/ml to 500,000 ng/ml. The solutions are diluted with methanol and stored at +4° C. in glass vials when not in use. The working solutions are used to prepare calibration standards in control plasma, with a final concentration of between 10 ng/ml and 5000 ng/ml per 100 microlitres of plasma. These standards are prepared on day one of analysis and re-prepared as necessary on each analytical occasion. Internal standards are dissolved in methanol/DMSA 50/50 v/v and diluted to 1 μg/mL in acetonitrile for a working solution.
Plasma samples are extracted by the following method. Transfer 50 microlitres of each calibration, quality control and test sample to a 96-well mictrotitre plate. Add 200 microlitres of a 1 microgram per millilitre internal standard solution in acetonitrile to all samples except for a double blank. 200 microlitres of acetonitrile is added to the double blank. Samples are briefly vortex mixed, and centrifuged at 2128 g for 30 minutes. Recoverable supernatant is transferred to an appropriate well of a microtitre plate and extracts are evaporated with oxygen free nitrogen at a gas temperature of about 40° C. Extracts are reconstituted in 200 μL of mobile phase and mixed well. The plate is sealed with silicone-based pre-pierced web seal and used for LC-MS/MS analysis.
LC-MS/MS analysis can be performed using the following chromatography conditions.

The conditions of series [3]: mouse, dose 35 mg/kg, Rudolph et al.; cited from earlier work.

Where two headings read alike, the source gives them in different places.

On to `CC[C@@H]1C(=O)N(C)c2cnc(Nc3ccc(C(=O)NC4CCN(C)CC4)cc3OC)nc2N1C1CCCC1` [BI2536], for which the “differentiation between the cancerous and the benign cell lines” value in series [1] is on record as “little or no differentiation”.

As to `COc1cc(C(=O)NC2CCN(C3CCOCC3)CC2)ccc1Nc1ncc2c(n1)N(C1CCCC1)CCC(=O)N2C` [Compound A13, 4-(9-cyclopentyl-5-methyl-6-oxo-6,7,8,9-tetrahydro-5H-pyrimido[4,5-b][1,4]diazepin-2-ylamino)-3-methoxy-N-[1-(tetrahydro-pyran-4-yl)-piperidin-4-yl]-benzamide], in series [2], the Cl_obs was 99.8 mL/min/kg, the HL_Lambda_z was determined as 0.78 h, the Vz_obs was determined as 6.713 L/kg and the AUC stood at 164 ng·h/mL. The Cmax in series [2] was 405 ng/mL.

In series [2], `COc1cc(C(=O)N[C@H]2CC[C@H](N3CCN(C)CC3)CC2)ccc1Nc1ncc2c(n1)N(C1CCCC1)CC1(CC1)C(=O)N2C` [Compound A7, 4-(9′-cyclopentyl-5′-methyl-6′-oxo-5′,6′,8′,9′-tetrahydrospiro[cyclopropane-1,7′-pyrimido[4,5-b][1,4]diazepine]-2′-ylamino)-N-((trans)-4-(4-methylpiperazin-1-yl)cyclohexyl)-3-methoxybenzamide] gave a Cl_obs of 40.75 mL/min/kg, an HL_Lambda_z of 1.97 h, a Vz_obs of 6.937 L/kg and an AUC of 377 ng·h/mL. Besides, the highest level in series [2] (Cmax) was 453 ng/mL.

Regarding `COc1cc(C(=O)N[C@H]2CC[C@H](N3CCN(CC4CC4)CC3)CC2)ccc1Nc1ncc2c(n1)N(C1CCCC1)CC1(CC1)C(=O)N2C` [Compound A1, 4-(9′-cyclopentyl-5′-methyl-6′-oxo-5′,6′,8′,9′-tetrahydrospiro[cyclopropane-1,7′-pyrimido[4,5-b][1,4]diazepine]-2′-ylamino)-N-((trans)-4-(4-(cyclopropylmethyl)piperazin-1-yl)cyclohexyl)-3-methoxybenzamide], in series [2], the Cl_obs was 21.22 mL/min/kg, the HL_Lambda_z came out at 2.89 h, the Vz_obs came out at 5.304 L/kg and the AUC was found to be 631 ng·h/mL. For the same compound, the peak level in series [2] (Cmax) was 478 ng/mL.

As to `CC[C@@H]1C(=O)N(C)c2cnc(Nc3ccc(C(=O)N[C@H]4CC[C@H](N5CCN(CC6CC6)CC5)CC4)cc3OC)nc2N1C(C)C` [BI6727], in series [3], the Cl_obs is 10 mL/min/kg, the Cmax is 4390 ng/mL, the HL_Lambda_z is 46 h and the Vz_obs is 7.6 L/kg.
